Experimental data as given in patent US9315544B2, “Method of treating eosinophilia by administering an immunomodulating peptide” (National Tsing Hua University, priority 2012, dated 2016).

Tests used:
CCL11 = assay: Cytokine mRNA expression analysis by quantitative real-time PCR (CCL11); format: cell-based; conditions: Beas-2B cells
Experimental: FIG. 1A-1B illustrates immunomodulatory effect of CMP on transcription of cytokine. Beas-2B cells were starved with serum free medium for 24 h, followed by stimulation with refold 5 μM ECP or 5 μM CMP or co-treatment with 5 μM ECP and 5 μM CMP at 37° C. for (A) 6 h and (B) 12 h, respectively. The mRNA quantities of CCL11, CCL24 and CCL26 were determined by real-time PCR. Beas-2B cells without protein treatment were used as control. […] The data represented at least three independent experiments and the error bar was shown as standard deviation (SD).
For inflammatory cytokine expression analysis, Beas-2B cells were stimulated with three different conditions: 1) 5 μM ECP, 2) 5 μM CMP and 3) co-incubated with 5 μM ECP and 5 μM CMP at 37° C. for 6 and 12 h. After incubation, total RNAs were extracted with RNA TRIzol reagent (Invitrogen, Inc) and reverse transcribed with MoMLV-reverse transcriptase (Promega, Madison, Wis.). SYBR Green-based quantitative real-time PCR will be used to quantify the gene of interest, relative expression ratios of genes of interest were normalized to glyceraldehyde-3-phosphate dehydrogenase (GAPDH) transcripts. Changes in cytokine expression were measured by quantitative real-time PCR (qRT-PCR) employing the StepOne™ amplification and detection system (Life Technologies Corporation). Data were analyzed by application of the StepOne™ quantification program software (version 2.22, Life Technologies Corporation) and expressed as means±S.D. Significance analysis was carried out by a two-sample unequal variance t-test with two-tailed distribution (post test). Significance was set as P<0.05.
ECP, the best known marker protein of asthma, is involved in triggering cytokine expression in bronchial epithelial cells. Real-time PCR analysis was carried out to quantify expression levels of indicated cytokines upon treatment with recombinant ECP in the presence and absence of CMP Bronchial epithelial Beas-2B cells were separately cultured in serum-free medium in the presence of 5 μM ECP, 5 μM CMP and both 5 μM ECP and 5 μM CMP for 6 and 12 h to monitor cytokine and chemokine gene modulation using real-time quantitative PCR. Untreated Beas-2B cells incubated at the same condition for 6 h and 12 h were used as negative controls. Here variation of gene expression levels of chemokines including CCL11, CCL24 and CCL26 was analyzed.

IL-5 = assay: Cytokine ELISA of lung protein extract (IL-5); format: in vivo, BALB/c mouse; conditions: mIT+eIN, eIN+mIT+eIN and eIN+mIT groups
Source text: (§1) FIG. 4 illustrates experimental design. All groups except control group were immunized with mite crude extract allergen on days 1 and 8, then mite crude extract allergen intratracheally on day 15 in all mite treated group, BALB/c mouse were divided into six groups (1) control group (PBS), (2) mites delivered intratracheally (mIT, mite on day 15) alone, (3) CMP intranasal (eIN, CMP on days 1 to 22) alone, (4) preventive-treatment group (eIN+mIT, CMP on days 1 to 14, mite on day 15) (5) therapy-treatment group (mIT+eIN, mite on day 15, CMP on days 15 to 22), and (6) preventive- and therapeutic-treatment group (eIN+mIT+eIN, CMP on days 1 to 22, mite on day 15).
(§2) FIG. 9 illustrates inhibitory effect of CMP on lung protein extract. Lung protein extracts from different groups of mouse were assayed for the indicated cytokines. Data represent one of three independent experiments. Levels of CCL-11, IL-5, IL-13 and IL-17A/F levels in lung protein extracts from mouse from treatment groups were measured by Enzyme-linked immunosorbent assay (ELISA). Each result was expressed as the mean±S.D., n=4. **, P<0.01, ***, P<0.001. […]
(§3) Levels of cytokines from lung protein extract were measured by ELISA. […] The microplates were read at 450 nm with an ELISA reader (Thermo Labsystems, Waltham, Mass., USA). […]

IL-13 = assay: Cytokine ELISA of lung protein extract (IL-13); format: in vivo, BALB/c mouse; conditions: eIN+mIT, mIT+eIN and eIN+mIT+eIN groups
Source text: as §1, §2, §3

[1] = test system: bronchial epithelial cell; conditions: cited from earlier work

Sequence: NYRWRCKNQN (CMP)
- effect on chemokine gene expression (CCL11, CCL24, CCL26) (CCL11; 5 μM CMP alone, 6 and 12 h): no effect
- ECP-induced gene expression of CCL11 (CCL11; co-treatment 5 μM ECP and 5 μM CMP, 6 h): significant reduction
- IL-5 levels in lung protein extract compared with mIT group (IL-5): lower
- IL-13 in lung protein extract compared with mIT group (IL-13): lower concentrations
- cytotoxic effect on bronchial epithelial cell [1]: no cytotoxic effect
